Laboratory results reported in ChEMBL document CHEMBL1144309, “Specific recognition of napthyridine-based ligands toward guanine-containing bulges in RNA duplexes and RNA-DNA heteroduplexes” (Bioorg Med Chem Lett, 2005).

Tests used:
[1] = test system: Human immunodeficiency virus 1; experiment: Dissociation constant was measured against HIV-1 RNA construct K (present in HIV-1 RRE IIB RNA region); assay type: functional
[2] = test system: Human immunodeficiency virus 1; experiment: Dissociation constant was measured against HIV-1 RNA construct J (present in HIV-1 RRE IIB RNA region); assay type: functional
[3] = test system: Human immunodeficiency virus 1; experiment: Dissociation constant was measured against HIV-1 RNA construct I (present in HIV-1 RRE IIB RNA region); assay type: functional
[4] = test system: Human immunodeficiency virus 1; experiment: Dissociation constant was measured against HIV-1 RNA construct A (present in HIV-1 RRE IIB RNA region); assay type: functional
[5] = test system: Human immunodeficiency virus 1; experiment: Dissociation constant was measured against HIV-1 RNA construct H (present in HIV-1 RRE IIB RNA region); N.B. = no measurable binding; assay type: functional, organism-based
[6] = test system: Human immunodeficiency virus 1; experiment: Dissociation constant was measured against HIV-1 RNA construct D (present in HIV-1 RRE IIB RNA region); assay type: functional
[7] = test system: Human immunodeficiency virus 1; experiment: Dissociation constant was measured against HIV-1 RNA construct G (present in HIV-1 RRE IIB RNA region); N.B. = no measurable binding; assay type: functional, organism-based
[8] = test system: Human immunodeficiency virus 1; experiment: Dissociation constant was measured against HIV-1 RNA construct B (present in HIV-1 RRE IIB RNA region); assay type: functional
[9] = test system: Human immunodeficiency virus 1; experiment: Dissociation constant was measured against HIV-1 RNA construct C (present in HIV-1 RRE IIB RNA region); assay type: functional
[10] = test system: Human immunodeficiency virus 1; experiment: Dissociation constant was measured against HIV-1 RNA construct F (present in HIV-1 RRE IIB RNA region); N.B. = no measurable binding; assay type: functional, organism-based
[11] = test system: Human immunodeficiency virus 1; experiment: Dissociation constant was measured against HIV-1 RNA construct E (present in HIV-1 RRE IIB RNA region); N.B. = no measurable binding; assay type: functional

Question: Which results are given for `Cc1ccc2ccc(NC(=O)CCNCCNCCC(=O)Nc3ccc4ccc(C)nc4n3)nc2n1`?
Answer: Kd [1]: 34.9 µM; Kd [2]: 32.3 µM; Kd [3]: 35.1 µM

Question: With `Cc1ccc2ccc(NC(=O)CCN)nc2n1` as the compound, how does the Kd [4] read?
Answer: The Kd was 1.4 µM.

Question: And the Kd [5]?
Answer: Its Kd is “No binding”.

Question: And the Kd [6]?
Answer: The Kd was 3.2 µM.

Question: What about the Kd [7] of the same compound?
Answer: The Kd was “No binding”.

Question: And the Kd [8]?
Answer: Its Kd is 2.4 µM.

Question: What about the Kd [9] of the same compound?
Answer: Its Kd is 2.9 µM.

Question: And the Kd [10]?
Answer: The Kd was “No binding”.

Question: And the Kd [11]?
Answer: Its Kd is “No binding”.
